As usually defined, the melting point is the temperature of the solid-liquid transition.

Data set [1] has as its system pressor effect of noradrenaline. Description: Pressor effect of noradrenaline after intravenous administration in normotensive narcotized rats. It counts as in vivo, rat. Here is the method: (§1) The experiments were performed on spontaneously hypertensive (SHT) and normotensive (NT) narcotized male rats using intravenous administration of the tested compounds. The ability of the compound to reduce arterial blood pressure (BP) in SHT rats and prevent spasmogenic reactions to noradrenalin (NA) and angiotensin I (AI).
(§2) The effects of the compound of formula I on the pressor effects of noradrenaline (NA, 10-15 μg/kg), mesatonum (M, 5 μg/kg) and angiotensin (AI, 5 μg/kg) were studied on normotensive narcotized […]. Antihypertensive action of the compound of formula I was assessed relative to the pressor effects of the control administration of the aforementioned compounds.

The subject of data set [2] is spontaneously hypertensive (SHT) rats. Kind of data set: Blood pressure in narcotized SHT rats, intravenous administration. It counts as in vivo, rat. Here is the method:
as §1
The compound of formula I was used as a solution in 3% aqueous DMSO. Sodium nitroprusside and nitroglycerin were used as reference drugs.
The administration of the compound of formula I in dose range 0.01-0.1-0.5 and 1.0 mg/kg has exerted dose-dependent antihypertensive effect ranging in time from 30-40 s to 60 min and more.

The test system of the next data set is non-narcotized SHT rats. Kind of data set: Blood pressure in non-narcotized SHT rats, intragastric administration (non-invasive BP measurement). It counts as in vivo, rat. The note with it: 10 mg/kg orally, 0 - absence of effect. Here is the method: In experiments on non-narcotized SHT rats intragastric administration of the compound of formula I has caused dose-dependent reduction of BP, the duration of which was increased correspondingly with dose increase (maximal duration of effect 5 hours after single administration of 50 mg/kg dose, Table 3).

Data set [3] has as its system pressor effect of angiotensin I. Description: Pressor effect of angiotensin I after intravenous administration in normotensive narcotized rats. It counts as in vivo, rat. Here is the method: as §1, §2
[4] abbreviates: higher doses (above 0.01 mg/kg) intravenous.

In the case of `CN1CC(C(O)C(O)C(O)CO)OC1=C(C#N)C=C1Nc2ccccc2C1=O` (stereo not shown) (hydrate or solvate) [X, 2-[2-Cyano-2-[3-methyl-5-(1,2,3,4-tetrahydroxybutyl)oxazolidin-2-ylidene]ethylidene]indolin-3-one], the melting point is 237 °C (dec.).

`CN1CCOC1=C(C#N)C=C1Nc2ccccc2C1=O` [IX, 2-[2-Cyano-2-(3-methyloxazolidin-2-ylidene)ethylidene]indolin-3-one]: the melting point is 222 to 226 °C (dec.).

As for `O=[N+]([O-])OCC(CO[N+](=O)[O-])O[N+](=O)[O-]` [Nitroglycerin, reference compound], the “Inhibition of pressor reaction (%) induced by Noradrenaline” value in data set [1] (0.5 mg/kg intravenous) was 20-25%; in data set [1] (1.0 mg/kg intravenous) it was 40-50%. In addition, the “Duration of BP reduction” value in data set [2] (0.01 mg/kg dose intravenous) lay within 30 to 40 s; in data set [2] (setting [4]), 300 to 360 s. In addition, the “Reduction of BP” value in data set [2] (0.01 mg/kg dose intravenous) is 10-15 mmHg; in data set [2] (setting [4]) it was 20-25 mmHg. The “Reduction of BP, mmHg (Δ)” value is given as −5 mmHg in data set [2] (0.01 mg/kg intravenously, 10-20 s); −10 ± 3 mmHg in data set [2] (0.01 mg/kg intravenously, 5 min); −3 mmHg in data set [2] (0.01 mg/kg intravenously, 30 min); −7 ± 3 mmHg in data set [2] (0.1 mg/kg intravenously, 10-20 s); −20 ± 5 mmHg in data set [2] (0.1 mg/kg intravenously, 5 min); −5 mmHg in data set [2] (0.1 mg/kg intravenously, 30 min). Moreover, the “Reduction of BP, mmHg (Δ)” value in data set [2] (0.5 mg/kg intravenously, 10-20 s) is reported as −12 ± 3 mmHg; in data set [2] (0.5 mg/kg intravenously, 5 min), −25 ± 7 mmHg; in data set [2] (0.5 mg/kg intravenously, 30 min), −5 mmHg; in data set [2] (1.0 mg/kg intravenously, 10-20 s), −10 ± 3 mmHg; in data set [2] (1.0 mg/kg intravenously, 5 min), −25 ± 8 mmHg; in data set [2] (1.0 mg/kg intravenously, 30 min) it was −7 ± 3 mmHg. The “Reduction of BP, mmHg” value amounted to 0 mmHg in the data set with non-narcotized SHT rats (time column 1, 1 h after dosing); 0 mmHg in the data set with non-narcotized SHT rats (time column 2, 2 h after dosing); 0 mmHg in the data set on non-narcotized SHT rats (time column 3, 3 h after dosing); 0 mmHg with non-narcotized SHT rats (time column 4, 4 h after dosing); 0 mmHg in the data set on non-narcotized SHT rats (time column 5, 5 h after dosing); 0 mmHg in the data set with non-narcotized SHT rats (time column 6, 6 h after dosing). The “Inhibition of pressor reaction (%) induced by Angiotensin I” value in data set [3] (0.5 mg/kg intravenous, 0 - absence of effect) was 0%; in data set [3] (1.0 mg/kg intravenous), 25-30%.

The values above are taken from US9453008B2, “Antithrombotic and antiatherosclerotic agent and method for producing same (variants)” (PROTON OOO, priority 2011, dated 2016).
